From PMC6256112, “Cannabinoid Receptor 2 Signalling Bias Elicited by 2,4,6-Trisubstituted 1,3,5-Triazines” (Frontiers in Pharmacology, 2018)
In brackets after ≈: the same amount, converted by molar mass. Read-outs that look alike come from different tables or passages of the source. Marks after values point to notes of the source that are not given here.

Experiments:
[1] = target: T1, hCB2 (Homo sapiens, UniProt P34972); test: pERK AlphaLISA assay, HEK Flp-in hCB2 cells; type: cell-based; conditions: for Behaviour in pERK pathway (in words): 4 min; for logR [log(τ/KA)] (±SEM) pERK: operational model transduction ratio; for Time of maximal pERK response: time course experiment; for Emax: read-out: pERK (4 min) Emax (±SEM)
T1 construct: expressed in transfected cells; host or cells: HEK Flp-in
T1 sequence (P34972 whole entry): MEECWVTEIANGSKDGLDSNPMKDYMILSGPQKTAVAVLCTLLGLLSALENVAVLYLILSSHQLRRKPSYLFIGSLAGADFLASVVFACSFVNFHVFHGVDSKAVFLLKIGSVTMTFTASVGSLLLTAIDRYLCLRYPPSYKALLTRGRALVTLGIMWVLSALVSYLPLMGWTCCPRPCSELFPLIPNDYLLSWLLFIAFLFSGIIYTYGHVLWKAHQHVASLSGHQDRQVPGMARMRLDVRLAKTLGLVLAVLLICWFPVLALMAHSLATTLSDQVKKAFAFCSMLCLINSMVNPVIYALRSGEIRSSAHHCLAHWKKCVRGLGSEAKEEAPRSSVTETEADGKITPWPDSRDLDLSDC

[2] = physchem; type: physicochemical; conditions: organic solvent or mixture
Excerpt: The piperazine-containing 1,3,5-triazines 1 and 7, assembled following literature protocols (compound “26a” in [Yrjölä et al., 2013]; compound “8” in [Yrjölä et al., 2015], respectively), were alkylated with various alkyl bromide linkers containing a Boc-protected amine at the terminus to give 3, 4, 8, 9 and 10 (Schemes 1, 2). These were then Boc-deprotected using acidic conditions to give primary amines 5, 6, 11, 12, and 13. One example of an acetylated linker (14) was also synthesised. Thirteen compounds were biologically tested (Table 1); five compounds had been reported previously (1, 2, 7, 15, 16) ([Yrjölä et al., 2013], [2015]), and the remainder were novel (5, 6, 9–14). […] 7 was therefore assayed in a higher final DMSO content (1%) than the other compounds (0.1%). Both vehicle concentrations were controlled for in all assays (negative/vehicle and positive controls).

[3] = target: T1, hCB2; test: Radioligand competition binding with [3H]-CP 55,940 on hCB2-expressing HEK membranes; conditions: for inhibition at 10 µM: 1 h, read-out: CB2 binding extent at 10 μM (%) (±SEM)
[4] = tested on: HEK Flp-in wt cells; test: CAMYEL cAMP assay in HEK Flp-in wt cells (non-hCB2-mediated effects); type: cell-based, human; conditions: for Non-hCB2-mediated effects on cAMP (in words): HEK Flp-in wt
[5] = target: T1, hCB2; test: Comparison of efficacy/potency and operational-model bias analysis between hCB2 pathways, reference CP 55,940; type: cell-based; conditions: for Internalisation – pERK Bias factor / cAMP – internalisation Bias factor / cAMP – pERK Bias factor: 10^ΔΔlogR; for Internalisation – pERK Bias factor / cAMP – internalisation Bias factor / cAMP – pERK Bias factor / Between-pathway signalling bias (in words): relative to CP 55,940; for Internalisation – pERK ΔΔlogR (±SEM) / cAMP – internalisation ΔΔlogR (±SEM) / cAMP – pERK ΔΔlogR (±SEM): relative to reference ligand CP 55,940
[6] = target: T1, hCB2; test: Real-time CAMYEL BRET cAMP assay, forskolin-stimulated HEK Flp-in hCB2 cells; type: cell-based; conditions: for cAMP (5 min) Emax (±SEM): change relative to forskolin alone (100%), vehicle 0%, 10 and 14 approximate; for logR [log(τ/KA)] (±SEM) cAMP: operational model transduction ratio; for Emax: read-out: cAMP (5 min) Emax (±SEM)
Experimental: Cellular cAMP levels were measured using a real-time BRET biosensor (CAMYEL) as previously described ([Cawston et al., 2013]). In brief, cells were seeded in 10 cm dishes one day prior to transfection. The medium was then replaced and cells transfected with 5 μg of pcDNA3L-His-CAMYEL (ATCC, Manassas, VA, United States) using linear PEI (MW 25 kDa; Polysciences, Warrington, PA, United States) with a DNA:PEI ratio of 1:6. Approximately 24 h after transfection, cells were trypsinised and re-plated in poly-D-lysine treated white 96-well plates (Corning), at a density of 5–6 × 10^4 cells per well. For experiments involving pertussis toxin (PTX; Sigma-Aldrich) pre-treatment, cells were seeded in half the usual volume of medium, and then ∼5 h later, 2× concentrated PTX or vehicle (50% glycerol, […] Tris–HCl pH 7.5, 10 mM glycine, 500 mM NaCl) were prepared in medium and added to the existing plating medium (giving rise to a final PTX concentration of 100 ng mL^-1). Approximately 24 h after plating (or 16–20 h after applying PTX/vehicle in experiments involving PTX treatment), cells were washed once with Hank’s Balanced Salt Solution (HBSS, Thermo Fisher Scientific, catalogue #14025-134), and then equilibrated for 30 min in HBSS supplemented with 1 mg mL^-1 BSA. Coelenterazine h (final concentration 5 μM; NanoLight Technologies, Pinetop, AZ, United States) was added to each well and incubated for 5 min. Forskolin was added (final concentration 5 μM) and incubated for 6 min (allowing enough time for the induced cAMP increase to plateau), prior to vehicle/drug addition. All drugs and reagents were prepared in HBSS supplemented with 1 mg mL^-1 BSA. SR 144528 was a generous gift from Roche (Basel, Switzerland).
Assays were carried out in technical duplicate. Emissions were detected at 460 nm (Rluc) and 535 nm (YFP) with either a LUMIstar® Omega luminometer (BMG Labtech, Ortenberg, Germany) or CLARIOstar® (BMG Labtech). BRET ratios (535 nm emissions/460 nm emissions, where an increase in ratio corresponds to a decrease in cAMP) were normalised to pre-forskolin reads (i.e., with coelenterazine h present) to remove any variability present prior to addition of forskolin and drug/vehicle. A Lowess curve (GraphPad Prism) was fitted to individual technical replicates within an assay so that cAMP signalling data could be extrapolated from any time point as opposed to only those that were empirically measured (typically every 30–60 s). Data were normalised to matched vehicle (0%) and forskolin (100%) treatments, allowing compilation of data from independent experiments.

[7] = target: T1, hCB2; test: hCB2 internalisation assay (immunocytochemistry of surface receptor), HEK Flp-in hCB2 cells; type: cell-based; design: Emax: dose or concentration left out as unconfirmed; conditions: for logR [log(τ/KA)] (±SEM) Internalisation: operational model transduction ratio
[8] = target: T2, hCB1 (Homo sapiens, UniProt P21554); test: Radioligand competition binding screen with [3H]-CP 55,940 on hCB1-expressing HEK membranes; conditions: for CB1 binding extent at 10 μM (%) (±SEM): 10 μM compound, displacement of 0.75 nM [3H]-CP 55,940; for CB2 selectivity over CB1 (in words): from CB1 binding at 10 μM versus CB2 affinity
T2 construct: expressed in transfected cells; host or cells: HEK (membranes)
T2 sequence (P21554 whole entry): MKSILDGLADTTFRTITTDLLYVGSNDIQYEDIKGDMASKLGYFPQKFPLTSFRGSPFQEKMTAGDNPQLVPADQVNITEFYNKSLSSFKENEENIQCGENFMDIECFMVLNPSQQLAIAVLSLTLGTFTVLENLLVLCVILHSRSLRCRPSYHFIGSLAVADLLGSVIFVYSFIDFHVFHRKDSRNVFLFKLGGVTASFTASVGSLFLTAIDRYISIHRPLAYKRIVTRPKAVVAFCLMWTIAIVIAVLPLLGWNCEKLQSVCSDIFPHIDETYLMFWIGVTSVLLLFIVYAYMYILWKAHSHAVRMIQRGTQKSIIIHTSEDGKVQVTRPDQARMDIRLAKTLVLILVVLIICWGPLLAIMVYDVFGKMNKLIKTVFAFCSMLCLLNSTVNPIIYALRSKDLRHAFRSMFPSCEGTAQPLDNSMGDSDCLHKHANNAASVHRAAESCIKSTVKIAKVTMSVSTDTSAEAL

[9] = tested on: CB2; design: method as in Yrjölä et al., 2015; conditions: ref Yrjölä et al., 2015; cited from earlier work
[10] = 4 min stimulation, 14 approximate (low potency), read-out: pERK (4 min) pEC50 (±SEM) (converted)
[11] = 10 μM compound, displacement of 0.5 nM [3H]-CP 55,940
[12] = compared to methylpiperazinyl-15
[13] = heterologous competition vs [3H]-CP 55,940, read-out: CB2 pKi (±SEM) (converted)
[14] = 5 min post-drug, 5 μM forskolin, 10 and 14 approximate (non-hCB2-mediated effects), read-out: cAMP (5 min) pEC50 (±SEM) (converted)
[15] = 5 min post-drug, 5 μM forskolin
[16] = read-out: Internalisation (1 h) Emax (±SEM)

Structure (SMILES)	Behaviour in pERK pathway (in words) [1]	EC50 [1, 10] [nM]	logR [log(τ/KA)] (±SEM) pERK [1]	Time of maximal pERK response [1] [min]	inhibition at 10 µM [3, 11] [%]	Ki [3, 13] [nM]	Non-hCB2-mediated effects on cAMP (in words) [4]	Internalisation – pERK Bias factor [5]	cAMP – internalisation Bias factor [5]	cAMP – pERK Bias factor [5]	Between-pathway signalling bias (in words) [5]	Internalisation – pERK ΔΔlogR (±SEM) [5]	cAMP – internalisation ΔΔlogR (±SEM) [5]	cAMP – pERK ΔΔlogR (±SEM) [5]	EC50 [6, 14] [nM]	cAMP (5 min) Emax (±SEM) [6, 15]	logR [log(τ/KA)] (±SEM) cAMP [6]	EC50 ([7]; 1 h stimulation) [nM]	logR [log(τ/KA)] (±SEM) Internalisation [7]	CB2 selectivity over CB1 (in words) [8]	other results
CCOc1nc(NC23CC4CC(CC(C4)C2)C3)nc(N2CCNCC2)n1 [Compound 7, N-(ad-amantan-1-yl)-4-ethoxy-6-(piperazin-1-yl)-1,3,5-triazi n-2-amine]	weak partial agonists	1820	5.51 (0.05)	4	85.6	417	most pronounced effects	15.4	1.3	20.3	away from activation of pERK	1.19 (0.16)***	0.12 (0.31)	1.31 (0.27)***	85.1	–43.0 (3.0) %	7.29 (0.26)	45.7	7.42 (0.26)	likely also CB2-selective	solubility [2]: 1000 µM (≈ 358 µg/mL); Reduction in hCB2 affinity compared to 15 [3, 12]: ~100 fold; Emax at 10 µM ([7]; read-out: Internalisation (1 h) Emax (±SEM), 1 h stimulation, change in surface hCB2 relative to vehicle-treated (100%), for 13 efficacy at 10 μM): -61.4%; CB1 binding extent at 10 μM (%) (±SEM) [8]: 13.7 (4.1) %; GTPγS activity, % of maximum measured activity [9]: ~60%
CCOc1nc(NC23CC4CC(CC(C4)C2)C3)nc(N2CCN(CCOCCOCCNC(C)=O)CC2)n1 [Compound 14, N-(2-(2-(2-(4-(4-((Adamantan-1-yl)Amino)-6-Ethoxy-1,3,5-Triazin-2-yl)Piperazin-1-yl)Ethoxy)Ethoxy) Ethyl)Acetamide]	–	–	5.16 (0.09)	4	–	–	–	8.6	0.2	1.6	biased towards internalisation	0.93 (0.13)**	–0.73 (0.25)*	0.20 (0.25)	–	–	5.83 (0.23)	–	6.81 (0.23)	likely also CB2-selective	EC50 [1]: 7410 nM; Emax [1]: 4.66%; Ki [3]: 1780 nM; inhibition at 10 µM [3]: 76.2%; Reduction in hCB2 binding affinity compared to 15 [3, 12]: 2–3 log units; Non-hCB2-mediated cAMP effects: fold less potent than cAMP inhibition in hCB2-expressing cells ([4]; HEK Flp-in wt versus HEK Flp-in hCB2): ~5 fold; EC50 [6]: 955 nM; Behaviour in cAMP pathway (in words) ([6]; 5 μM forskolin): partial agonists; Emax [6]: -29.8%; EC50 [7]: 174 nM; Emax [7, 16]: -61.8%; CB1 binding extent at 10 μM (%) (±SEM) [8]: –18.8 (11.4) %
CCOc1nc(NC23CC4CC(CC(C4)C2)C3)nc(N2CCN(C)CC2)n1 [Compound 15, N-(Adamantan-1-yl)-4-ethoxy-6-(4-methylpiperazin-1-yl)-1,3,5-triazin-2-amine]	equivalent efficacies to CP 55,940	–	7.45 (0.10)	4	–	–	–	5.7	0.3	1.6	biased towards internalisation	0.76 (0.15)*	–0.56 (0.15)	0.20 (0.13)	–	–	8.12 (0.09)	–	8.92 (0.09)	somewhat CB2-selective	EC50 [1]: 35.5 nM; Emax [1]: 9.96%; Ki [3]: 4.27 nM; inhibition at 10 µM [3]: 92.9%; EC50 [6]: 7.94 nM; Emax [6]: -39.6%; EC50 [7]: 1.23 nM; Emax [7, 16]: -56.5%; Functional GTPγS selectivity for CB2 versus CB1 [9]: 1000 to 10,000 fold; GTPγS functional behaviour (in words) [9]: full agonist
CCOc1nc(NC23CC4CC(CC(C4)C2)C3)nc(N2CCN(CCF)CC2)n1 [Compound 16, N-(adamantan-1-yl)-4-et hoxy-6-(4-(2-fluoroethyl)piperazin-1-yl)-1,3,5-triazin-2-amine]	–	12.3	7.84 (0.07)	4	95.6	1.62	most pronounced effects	2.2	0.7	1.6	did not demonstrate any indication of between-pathway bias	0.35 (0.13)	–0.14 (0.22)	0.21 (0.20)	2.82	–35.6 (2.2) %	8.52 (0.19)	1.2	8.90 (0.19)	somewhat CB2-selective	Efficacy relative to maximal efficacy measured across all compounds, all three pathways [5]: ~80%; Emax ([5]; read-out: Efficacy relative to maximal efficacy measured across all compounds, all three pathways, internalisation, cAMP and pERK): 75 to 80%; Behaviour in internalisation pathway (in words) ([7]; 1 h stimulation): significantly less efficacious; Functional GTPγS selectivity for CB2 versus CB1 [9]: 1000 to 10,000 fold; GTPγS activity, % of maximum measured activity [9]: ~70%
